Test [1] deals with T1, transglutaminase 2 (TGase 2) (Homo sapiens, UniProt P21980).
T1 sequence (P21980 1-687): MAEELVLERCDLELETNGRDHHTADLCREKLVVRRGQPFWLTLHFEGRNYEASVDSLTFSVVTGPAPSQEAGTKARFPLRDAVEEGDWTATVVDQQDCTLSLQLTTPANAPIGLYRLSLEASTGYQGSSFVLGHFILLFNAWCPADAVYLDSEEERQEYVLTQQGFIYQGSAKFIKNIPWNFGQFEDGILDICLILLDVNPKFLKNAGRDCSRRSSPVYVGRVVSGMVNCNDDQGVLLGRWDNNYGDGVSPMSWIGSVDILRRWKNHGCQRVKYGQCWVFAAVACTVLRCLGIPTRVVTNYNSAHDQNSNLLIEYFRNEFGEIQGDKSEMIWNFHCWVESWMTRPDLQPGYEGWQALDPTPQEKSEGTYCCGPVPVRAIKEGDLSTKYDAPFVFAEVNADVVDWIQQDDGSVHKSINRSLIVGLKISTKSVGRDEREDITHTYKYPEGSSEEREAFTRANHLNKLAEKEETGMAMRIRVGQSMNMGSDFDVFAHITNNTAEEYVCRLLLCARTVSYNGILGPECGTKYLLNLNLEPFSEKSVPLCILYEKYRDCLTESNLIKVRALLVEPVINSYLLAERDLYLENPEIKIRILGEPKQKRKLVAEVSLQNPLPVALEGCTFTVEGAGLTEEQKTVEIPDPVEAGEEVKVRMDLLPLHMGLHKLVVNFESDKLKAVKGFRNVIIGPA
Briefly: TGase 2 transpeptidase fluorescence assay: incorporation of KXD into N,N-dimethylated-casein (Std and FPC formats). It is filed as biochemical. Particulars: for TGase 2 inhibitory activity, SAR comment in words (relative to parent compound): qualitative comparison. Here is the method: Transpeptidase activity was monitored as the increase in fluorescence intensity (FI) that accompanies incorporation of the dansylated Lys derivative, α-N-Boc-Lys-CH2-CH2-dansyl (KXD), into the protein substrate, N,N-dimethylated-casein (NMC).
Therefore, a method was used in which full progress curves (FPC) were recorded for the TGase-catalyzed reaction of KXD with NMC in the presence of inhibitor (Table 1-4). Reactions were initiated by enzyme addition to a solution of substrate and inhibitor. […] From such progress curves, IC50 values were calculated using the following equation: IC50=[I]/{(vc/vss)−1}. Progress curves recorded at several inhibitor concentrations were used to determine FPC IC50 values (Table 1-4).

Test [2] addresses T1, transglutaminase 2 (TGase 2). Described as above. It is filed as biochemical. The following applies: standard format (Std): reactions terminated after 60 min, FI recorded, four-parameter fit.
[3] abbreviates: full progress curves (FPC), IC50=[I]/{(vc/vss)−1}, from steady-state velocity, read-out: IC50 (μM, FPC).
[4] abbreviates: summary of FPC values, read-out: FPC IC50 values.

Read-outs that look alike come from different tables or passages of the source.

Broadly, the IC50 is the concentration needed to halve the response being measured.

Consider `NNC(=O)CSc1nc2ccc(-c3ccccc3)cc2c(=O)n1-c1cccc(F)c1` [986-04, [3-(3-Fluorophenyl)-4-oxo-6-phenyl-3,4-dihydroquinazolin-2-ylsulfanyl]acetic acid hydrazide], for which the IC50 in test [1] (setting [3]) is 1.5 µM. Moreover, the “TGase 2 inhibitory activity, SAR comment in words (relative to parent compound)” value in test [1] is “Activity was partly restored”.
On the same counts, the results for `NNC(=O)CNc1nc2scc(-c3ccccc3)c2c(=O)n1-c1ccccc1` [986-05, (4-Oxo-3,5-diphenyl-3,4-dihydrothieno[2,3-d]pyrimidin-2-ylamino)acetic acid hydrazide] are 3.7 µM and “decreased activity”.
The molecule `CN(CC(=O)NN)c1nc2scc(-c3ccccc3)c2c(=O)n1-c1ccccc1` [986-06, [Methyl-(4-oxo-3,5-diphenyl-3,4-dihydrothieno[2,3-d]pyrimidin-2-yl) -amino]acetic acid hydrazide] had a half-maximal inhibitory concentration (IC50) in test [2] of over 20 µM.
On the same count and under the same terms, the same measure for `Cn1c(SCC(=O)NN)nc2scc(-c3ccccc3)c2c1=O` [986-10, (3-Methyl-4-oxo-5-phenyl-3,4-dihydrothieno[2,3-d]pyrimidin-2-ylsulfanyl)acetic acid hydrazide]: 8.4 µM; for `Cc1csc2nc(SCC(=O)NN)n(-c3ccc(F)cc3)c(=O)c12` [986-11, [3-(4-Fluorophenyl)-5-methyl-4-oxo-3,4-dihydrothieno[2,3-d]pyrimidin-2-ylsulfanyl]acetic acid hydrazide]: 6.3 µM; for `NNC(=O)CSc1nc2scc(-c3ccccc3)c2c(=O)n1Cc1ccccc1` [986-14, (3-Benzyl-4-oxo-5-phenyl-3,4-dihydrothieno[2,3-d]pyrimidin-2-ylsulfanyl)acetic acid hydrazide]: 2.3 µM.
Same read-out and setting: under `COc1ccc(-n2c(SCC(=O)NN)nc3scc(-c4ccccc4)c3c2=O)cc1` [986-15, [3-(4-Methoxyphenyl)-4-oxo-5-phenyl-3,4-dihydrothieno[2,3-d]pyrimidin-2-ylsulfanyl]acetic acid hydrazide] stands 2.1 µM.
`NNC(=O)CSc1nc2scc(-c3ccccc3)c2c(=O)n1C1CCCCC1` [986-17, (3-Cyclohexyl-4-oxo-5-phenyl-3,4-dihydrothieno[2,3-d]pyrimidin-2-ylsulfanyl)acetic acid hydrazide] yielded a half-inhibitory concentration (IC50) in test [2] of 2.6 µM.
The same measure, in the same setting: the same measure for `COc1ccccc1-n1c(SCC(=O)NN)nc2scc(-c3ccccc3)c2c1=O` [986-20, [3-(2-Methoxyphenyl)-4-oxo-5-phenyl-3,4-dihydrothieno[2,3-d]pyrimidin-2-ylsulfanyl]acetic acid hydrazide]: 2 µM; for `NNC(=O)CSc1nc2scc(-c3ccccc3)c2c(=O)n1-c1ccccc1Cl` [986-23, [3-(2-Chlorophenyl)-4-oxo-5-phenyl-3,4-dihydrothieno[2,3-d]pyrimidin-2-ylsulfanyl]acetic acid hydrazide]: 1.8 µM; for `NNC(=O)CSc1nc2scc(-c3ccccc3)c2c(=O)n1-c1cccc(Cl)c1` [986-24, [3-(3-Chlorophenyl)-4-oxo-5-phenyl-3,4-dihydrothieno[2,3-d]pyrimidin-2-ylsulfanyl]acetic acid hydrazide]: 1.5 µM.
On the same count and under the same terms, under `NNC(=O)CSc1nc2scc(-c3ccccc3)c2c(=O)n1-c1ccc(Cl)cc1` [986-25, [3-(4-Chlorophenyl)-4-oxo-5-phenyl-3,4-dihydrothieno[2,3-d]pyrimidin-2-ylsulfanyl]acetic acid hydrazide] stands 1.8 µM.
For `COc1ccccc1-c1csc2nc(SCC(=O)NN)n(-c3cccc(F)c3)c(=O)c12` [986-31, [3-(3-Fluorophenyl)-5-(2-methoxyphenyl)-4-oxo-3,4-dihydrothieno[2,3-d]pyrimidin-2-ylsulfanyl]acetic acid hydrazide], the IC50 in test [1] (setting [3]) is 0.14 µM; in test [1] (setting [4]), under 0.16 µM.
Take `COc1ccc(-c2csc3nc(SCC(=O)NN)n(-c4cccc(F)c4)c(=O)c23)cc1` [986-33, [3-(3-Fluorophenyl)-5-(4-methoxyphenyl)-4-oxo-3,4-dihydrothieno[2,3-d]pyrimidin-2-ylsulfanyl]acetic acid hydrazide]: the 50% inhibitory concentration (IC50) in test [1] (setting [3]) worked out at 0.28 µM.
In the case of `NNC(=O)CSc1nc2scc(-c3ccccc3O)c2c(=O)n1-c1cccc(F)c1` [986-34, [3-(3-Fluorophenyl)-5-(2-hydroxyphenyl)-4-oxo-3,4-dihydrothieno[2,3-d]pyrimidin-2-ylsulfanyl]acetic acid hydrazide], in test [2], the concentration for half-maximal inhibition (IC50) came out at 1.4 µM.
Take `CC(C)c1csc2nc(SCC(=O)NN)n(-c3cccc(F)c3)c(=O)c12` [986-36, [3-(3-Fluorophenyl)-5-isopropyl-4-oxo-3,4-dihydrothieno[2,3-d]pyrimidin-2-ylsulfanyl]acetic acid hydrazide]: the IC50 in test [1] (setting [3]) was 0.23 µM. For the same molecule, the “TGase 2 inhibitory activity, SAR comment in words (relative to parent compound)” value in test [1] is recorded as “no loss in activity”.
As to `NNC(=O)CSc1nc2scc(-c3ccccc3F)c2c(=O)n1-c1cccc(F)c1` [986-37, [3-(3-Fluorophenyl)-5-(2-fluorophenyl)-4-oxo-3,4-dihydrothieno[2,3-d]pyrimidin-2-ylsulfanyl]acetic acid hydrazide], the half-maximal inhibitory concentration (IC50) is 0.14 µM in test [1] (setting [3]) and under 0.16 µM in test [1] (setting [4]).
On to `NNC(=O)CSc1nc2scc(-c3cccc(F)c3)c2c(=O)n1-c1cccc(F)c1` [986-38, [3,5-Bis-(3-fluorophenyl)-4-oxo-3,4-dihydrothieno[2,3-d]pyrimidin-2-ylsulfanyl]acetic acid hydrazide], for which the IC50 in test [1] (setting [3]) came out at 0.29 µM.
As for `NNC(=O)CSc1nc2sc(Cl)c(-c3ccccc3F)c2c(=O)n1-c1cccc(F)c1` [986-39, [6-Chloro-3-(3-fluorophenyl)-5-(2-fluorophenyl)-4-oxo-3,4-dihydrothieno[2,3-d]pyrimidin-2-ylsulfanyl]acetic acid hydrazide], the half-maximal inhibitory concentration (IC50) in test [1] (setting [3]) was 0.13 µM; in test [1] (setting [4]), under 0.16 µM. For the same molecule, the “TGase 2 inhibitory activity, SAR comment in words (relative to parent compound)” value in test [1] is “increased activity”.
Take `Cc1sc2nc(SCC(=O)NN)n(-c3cccc(F)c3)c(=O)c2c1-c1ccccc1F` [986-40, [3-(3-Fluorophenyl)-5-(2-fluorophenyl)-6-methyl-4-oxo-3,4-dihydrothieno[2,3-d]pyrimidin-2-ylsulfanyl]acetic acid hydrazide]: the IC50 was 0.15 µM in test [1] (setting [3]) and under 0.16 µM in test [1] (setting [4]).
In the case of `CC(C)c1sc2nc(SCC(=O)NN)n(-c3cccc(F)c3)c(=O)c2c1-c1ccccc1F` [986-41, [3-(3-Fluorophenyl)-5-(2-fluorophenyl)-6-isopropyl-4-oxo-3,4-dihydrothieno[2,3-d]pyrimidin-2-ylsulfanyl]acetic acid hydrazide], the IC50 in test [1] (setting [3]) stood at 0.9 µM. For the same molecule, the “TGase 2 inhibitory activity, SAR comment in words (relative to parent compound)” value in test [1] is listed as “detrimental”.
Consider `NNC(=O)CSc1nc2sc3c(c2c(=O)n1-c1cccc(F)c1)CCCC3` [986-42, [3-(3-Fluorophenyl)-4-oxo-3,4,5,6,7,8-hexahydrobenzo[4,5]thieno[2,3-d]pyrimidin-2-ylsulfanyl]acetic acid hydrazide], for which, in test [1] (setting [3]), the IC50 came to 0.45 µM.
The same measure, in the same setting: the same measure for `CC1CCCc2sc3nc(SCC(=O)NN)n(-c4cccc(F)c4)c(=O)c3c21` (stereo not drawn) [986-43, [3-(3-Fluorophenyl)-5-methyl-4-oxo-3,4,5,6,7,8-hexahydrobenzo[4,5]thieno[2,3-d]pyrimidin-2-ylsulfanyl]acetic acid hydrazide]: 0.2 µM.
As to `NNC(=O)CSc1nc2sc3c(c2c(=O)n1-c1cccc(F)c1)C(Cc1ccccc1)CCC3` (stereo not drawn) [986-45, [5-Benzyl-3-(3-fluorophenyl)-4-oxo-3,4,5,6,7,8-hexahydrobenzo[4,5]thieno[2,3-d]pyrimidin-2-ylsulfanyl]acetic acid hydrazide], the concentration for half-maximal inhibition (IC50) in test [2] worked out at 2.3 µM.
On to `CC(C)(C)OC(=O)N1CCc2c(sc3nc(SCC(=O)NN)n(-c4cccc(F)c4)c(=O)c23)C1` [986-46, 3-(3-Fluorophenyl)-2-hydrazinocarbonylmethylsulfanyl-4-oxo-3,5,6,8-tetrahydro-4H-9-thia-1,3,7-triazafluorene-7-carboxylic acid tert-butyl ester], for which, in test [1] (setting [3]), the IC50 amounted to 1.1 µM.
For `NNC(=O)CSc1nc2sc3c(c2c(=O)n1-c1cccc(F)c1)CCNC3` [986-47, [3-(3-Fluorophenyl)-4-oxo-3,4,5,6,7,8-hexahydro-9-thia-1,3,7-triazafluoren-2-ylsulfanyl]acetic acid hydrazide], in test [1] (setting [3]), the IC50 is 7.1 µM.
Still for that read-out and setting: under `CN1CCc2c(sc3nc(SCC(=O)NN)n(-c4cccc(F)c4)c(=O)c23)C1` [986-48, [3-(3-Fluorophenyl)-7-methyl-4-oxo-3,4,5,6,7,8-hexahydro-9-thia-1,3,7-triazafluoren-2-ylsulfanyl]acetic acid hydrazide] stands 0.53 µM.

(Values after US20060183759A1, “Tissue transglutaminase inhibitors” (priority 2004, published 2006).)
